From patent publication US12448655B2, “Antibiotic susceptibility of microorganisms and related methods and systems” (CALIFORNIA INSTITUTE OF TECHNOLOGY, priority 2017, dated 2025)

Assays:
Assay type in all cases: cell-based
Klebsiella pneumoniae = experiment: Minimum inhibitory concentrations (MICs) of Enterobacteriaceae clinical isolates
Text: (§1) Clinical isolates referenced, minimum inhibitory concentrations (MICs), and categorical susceptibility based on CLSI breakpoints The below list of organisms are examples of clinically-relevant susceptible and resistant Enterobacteriaceae clinical isolates. Minimum inhibitory concentrations (MICs) are provided in μg/mL for the antibiotics listed.
(§2) Isolates, growth conditions, and antibiotic exposure conditions. 25 de-identified clinical isolates were obtained from the UCLA Clinical Microbiology Laboratory (CML) and the CDC's Enterobacteriaceae Carbapenem Breakpoint panel. In the case of isolates obtained from the UCLA CML, MICs were determined as described previously. Genotypic testing of the two Ec and two Kp isolates selected for their lack of known β-lactamase genes was performed by UCLA CML using a previously published assay and separately at the Keck School of Medicine of USC using the FDA-approved Cepheid Xpert® Carba-R test. Whole genome sequencing of the single Ebs isolate selected for its lack of known resistance genes was performed by the CDC [3]. All isolates were stored as glycerol stocks at −80° C. Glycerol stocks were streaked onto Trypticase Soy Agar with 5% sheep's blood (Becton Dickinson, Franklin Lakes, NJ, USA) and grown overnight at 37° C. Prior to experiments, a small clump of cells was resuspended in 2 mL Brain Heart Infusion Broth (BHI, Becton Dickinson) at 37° C.+5% CO2 with 500 rpm shaking for 2 to 4 h until visibly turbid. OD600 of the cultures was then measured, and working cultures prepared at an OD600 of 0.01-0.07 and grown for 50-145 min at 37° C.+5% CO2 with 500 rpm. Working cultures were then diluted 10× into control and treated aliquots for antibiotic exposure. For validation experiments, antibiotic exposure was performed in 100 μL volumes consisting of 80 μL Mueller Hinton II Broth (Becton Dickinson), 5 μL nuclease-free H2O (NF—H2O), 5 μL 20× antibiotic stock solution, and 10 μL of working culture. In control aliquots, antibiotic stock solution was replaced with NF—H2O. For filtration experiments, antibiotic exposure was performed in 100 μL volumes consisting of 65 μL Mueller Hinton II Broth (Becton Dickinson), 21 μL nuclease-free H2O (NF—H2O), 4 μL 25× antibiotic stock solution, and 10 μL of working culture. In control aliquots, antibiotic stock solution was replaced with NF—H2O.

Escherichia coli = experiment: as above
Text: as §1, §2

Neisseria gonorrhoeae = experiment: Two-step aAST with surfactant (CHAPS) only in the secondary exposure, qPCR CT ratio (Example 11); conditions: 1 μg/mL ceftriaxone 15 min, then 10 mM CHAPS with DNaseI 5 min
Description: This example was performed using a two-step exposure in which the first step is exposure to a beta-lactam antibiotic and the second step is a 1:1 dilution into DNaseI treatment in the presence of a surfactant.
The inclusion of the surfactant enhances the accessible nucleic acids made available by short (15 minute) b-lactam exposure by adding a second incubation step with a surfactant. Differences in DNA accessibility between the unexposed and exposed tubes are enhanced. DNaseI is used to degrade the DNA made accessible by beta-lactam treatment and the surfactant.
FIG. 23 describes the layout of this experiment. An NG isolate is incubated with a beta-lactam antibiotic for 15 minutes, followed by a DNaseI digestion step in the presence of surfactant. At each time point, DNaseI will be added to degrade the accessible DNA, then the DNaseI will be inactivated simultaneously with the lysis of the remaining cells. The quantified nucleic acids represent those inaccessible from the DNaseI throughout the exposure protocol. • 1. Provide incubation media containing enhancer, accessibility, with and without an antibiotic for each isolate
The samples were mixed before transferring 25 μL of the sample to the prepared secondary incubation (enhancer) tubes. […]

Antibiotic MICs (Klebsiella pneumoniae; isolate Kp_1): <=1 μg/mL
Antibiotic MICs (Klebsiella pneumoniae; isolate Kp_2): <=1 μg/mL
Antibiotic MICs (Klebsiella pneumoniae; isolate Kp_7): >32 µg/mL
Antibiotic MICs (Klebsiella pneumoniae; isolate Kp_8): >32 µg/mL
Antibiotic MICs (Escherichia coli; isolate Ec_1): <=1 μg/mL
Antibiotic MICs (Escherichia coli; isolate Ec_2): <=1 μg/mL
Antibiotic MICs (Escherichia coli; isolate Ec_3): <=1 μg/mL
Antibiotic MICs (Escherichia coli; isolate Ec_4): <=1 μg/mL
Antibiotic MICs (Escherichia coli; isolate Ec_38): >32 µg/mL
Antibiotic MICs (Escherichia coli; isolate Ec_39): >32 µg/mL
Antibiotic MICs (Escherichia coli; isolate Ec_40): >=64 μg/mL
Antibiotic MICs (Escherichia coli; isolate Ec_41): >32 µg/mL
SMILES: CO/N=C(\C(=O)N[C@@H]1C(=O)N2C(C(=O)O)=C(CSc3nc(=O)c(=O)[nH]n3C)CS[C@H]12)c1csc(N)n1 [CRO, ceftriaxone]
CT ratio (control/treated, qPCR) (Neisseria gonorrhoeae; ceftriaxone-susceptible isolates ng_5, ng_17, ng_19): > 1.5
CT ratio (control/treated, qPCR) (Neisseria gonorrhoeae; reduced-susceptibility isolate ng_30): < 1.5
